These results are taken from patent publication US20190269715A1, “COMPOSITIONS AND METHOD OF USE OF A-TYPE PROCYANIDINS” (MARS, INCORPORATED, priority 2004, published 2019).

For assay [1] the following is noted: experimental animal studies; cited from earlier work.
Assay [2] addresses Leukemia virus reverse transcriptase (Moloney murine leukemia virus, UniProt P03355). The following applies: cited from earlier work.
Assay [3] relates to platelet/monocyte and platelet/neutrophil conjugates in whole blood. Briefly: Platelet-leukocyte conjugate formation (P/M, P/N) by flow cytometry. Type of assay: cell-based, human. The following applies: FIG. 2; 10 min; collagen 0.125-0.5 μg/ml; ASA 100 μM. (Flow cytometry measures light scatter and fluorescence of single cells or particles in a stream.)
Experimental: Platelet aggregation of A1 dimer [[MUT]] was measured using a platelet counting technique, and formation of platelet/monocyte conjugates (P/M) and platelet/neutrophil conjugates (PIN) by flow cytometry. In later experiments the activation state of platelets associated with leukocytes (CD62P) was also measured and also the activation state of the leukocytes themselves (CD11b). Blood was obtained from healthy volunteers, who denied taking any aspirin or NSAIDS in the previous 10 days. This blood was dispensed into graduated polystyrene tubes that contained hirudin (final concentration 50 μg/ml) and a small volume of the flavanol under investigation or ethanol as control. The final concentration of ethanol in the blood was always 0.3%. […] Platelet-leukocyte conjugate formation was measured in the same stirred samples used to measure platelet aggregation. […] Fluorescence parameters were acquired with logarithmic amplification. Platelet monocyte (P/M) and platelet neutrophil (P/N) conjugates were quantified as median CD42a (FITC) fluorescence of the monocyte (P/M mf) or neutrophil population (PIN mf). Leukocyte activation was measured by CD11b (AlexaFluor647) expression (CD11b-M for monocytes and CD11b-N for neutrophils). Platelet activation (P-selectin expression) was measured by CD62P (PE) positivity of the platelets associated with leukocytes as (CD62P-M on P/M and CD62P-N on PIN). […]
For assay [4], the system named is CD11b on monocytes and neutrophils. Briefly: Leukocyte activation (CD11b expression) by flow cytometry. The settings on record: FIG. 3; 10 min; collagen 0.125-0.5 μg/ml; A1 dimer 0.3 mM, aspirin 100 μM. Type of assay: cell-based, human. On the procedure:
Platelet-leukocyte conjugate formation was measured in the same stirred samples used to measure platelet aggregation. Sub samples were taken 4 min or 10 min following the addition of agonist and transferred into the appropriate antibody or antibody mixture. These were then incubated in the dark at room temperature for not less than 20 min. Following red cell lysis and a washing procedure the cell suspensions were applied to either the FACScan or the LSRII flow cytometer. Leukocytes were identified by logical gating from dot plots of forward scatter (cell size) and side scatter (cell granularity) profiles acquired with linear amplification. […] Fluorescence parameters were acquired with logarithmic amplification. Platelet monocyte (P/M) and platelet neutrophil (P/N) conjugates were quantified as median CD42a (FITC) fluorescence of the monocyte (P/M mf) or neutrophil population (PIN mf). Leukocyte activation was measured by CD11b (AlexaFluor647) expression (CD11b-M for monocytes and CD11b-N for neutrophils). Platelet activation (P-selectin expression) was measured by CD62P (PE) positivity of the platelets associated with leukocytes as (CD62P-M on P/M and CD62P-N on PIN). […]
Blood was obtained from three different volunteers and the platelet aggregation (4 min) and platelet/leukocyte conjugate formation (10 min) was measured in response to collagen (0, 0.125, 0.25 and 0.5 μg/ml). […]

The next assay has as its system platelets in whole blood. Briefly: Collagen-induced platelet aggregation in whole blood (platelet counting). Type of assay: cell-based, human. The settings on record: collagen 0.125-0.5 μg/ml, A1 dimer 0.3 mM; for collagen-induced platelet aggregation: FIG. 2, 4 and 10 min, ASA 100 μM. On the procedure:
Platelet aggregation of A1 dimer [A1D] was measured using a platelet counting technique, and formation of platelet/monocyte conjugates (P/M) and platelet/neutrophil conjugates (PIN) by flow cytometry. In later experiments the activation state of platelets associated with leukocytes (CD62P) was also measured and also the activation state of the leukocytes themselves (CD11b).
A1 dimer [A1D] was dissolved in ethanol. Once in solution, further dilution with saline was possible. Hirudin, (Revasc™) was obtained from Novartis (Basel, Switzerland) and was stored as a 5 mg/ml solution in saline in a glass vial at −20° C. Collagen (Nycomed) was from Axis Shield Diagnostics (Dundee, UK). Concentrations were prepared from the stock solution (1 mg/ml) using the isotonic glucose buffer supplied by the manufacturer. Aspirin (acetyl salicylic acid-ASA), adenosine diphosphate (ADP), platelet activating factor (PAF), arachidonic acid (AA) and epinephrine were from Sigma. Fixing solution consisted of 140 mM NaCl containing 0.16% w/v formaldehyde, 4.6 mM Na2EDTA, 4.5 mM Na2HP04 and 1.6 mM KH2PO4, pH 7.4.
Blood samples were studied using the Multi-Sample Agitator (MSA) produced by the Medical Engineering Unit (University of Nottingham). The MSA is used to maintain blood samples at 37° C. and to agitate small samples of blood at a stir speed of 1,000 rpm as required. […]
Following the 30 min pre-incubation, aliquots of blood (480 μl) were dispensed into small polystyrene tubes each containing a stir bar and stirred for 2 min in the MSA. […] The platelet count in the fixed samples was determined using the UltraFlo-100 Whole Blood Platelet Counter. Platelet aggregation was calculated as the percentage loss of single platelets with reference to the platelet count of the EDTA sample.
Blood was obtained from three different volunteers and the platelet aggregation and platelet/leukocyte conjugate formation was measured in response to collagen (0, 0.125, 0.25 and 0.5 μg/ml). […] Aggregation was measured at 4 and 10 min following agonist addition and platelet/leukocyte conjugate formation only at 10 min. […]

Another assay has as its system tumor. The following applies: cited from earlier work.
Another assay concerns rabbit aortic rings. Briefly: Ex vivo endothelium-dependent relaxation of NE pre-constricted rabbit aortic rings. On the procedure:
Effect of A-type procyanidins on endothelium-dependent relaxation was tested in an ex vivo experiment performed as previously described by Karim et al., J. Nutrl Suppl., 130 (8S): […]-[…] (2000), the relevant portions of which are hereby incorporated herein by reference. The advantage of using this method is that it assesses functional cardiovascular end points. […] In summary, rabbit aortic rings were obtained from male New Zealand White rabbits. Following isolation, the rings were mounted in oxygenated Kreb's buffer, and pre-constricted with NE (10^-6 M). When the tension had reached a steady state, cumulative concentrations of the test compounds were applied (10^-9 to 10^-4 M). A positive control acetylcholine (10^-6M) and a negative control L-NAME were included in the experiment. Use of L-NAME, which is a NO synthase (NOS) inhibitor, allows for differentiating between endothelium dependent and endothelium independent relaxation events. Denuding of aortic rings represent a similar control. 400 U/mL of catalase was added into the aortic bath prior to the addition of each of the test compounds to ensure that the observed effects are not caused by hydrogen peroxide (H202) generation in the culture medium. The relaxation response was measured as a function of the decrease in the tension (g) exerted by the aortic rings over time. Data obtained were expressed as a percent relaxation of the norepinephrine (NE) constricted rings. The same statistical approach as described above was used. Dose response curves were obtained by plotting the average percent relaxation (+/-SE) against the concentrations used.

Turning to `O=c1c(O)c(-c2ccc(O)c(O)c2)oc2cc(O)cc(O)c12` [quercetin], the anticarcinogenic activity entry in assay [1] is reported as “anticarcinogenic activity”.
In the case of `Oc1cc(O)c2c(c1)O[C@H](c1ccc(O)c(O)c1)[C@@H](O)C2` [(+)-catechin], the “inhibition of Leukemia virus reverse transcriptase activity” value in assay [2] is listed as “inhibit”.
As to `CC(=O)Oc1ccccc1C(=O)O` [ASA, acetyl salicylic acid, reference compound], in assay [3], the “platelet/monocyte conjugates (P/M)” value is given as “effectively inhibited” and the “platelet/neutrophil conjugates (P/N)” value was “effectively inhibited”. In addition, the “leukocyte activation (CD11b)” value in assay [4] is on record as “no effect”. Besides, the collagen-induced platelet aggregation result in the assay with platelets in whole blood was “effectively inhibited”.
Regarding Nobotanin, the anti-tumor activity entry in the assay with tumor is on record as “anti-tumor activity”.
For the molecule `Oc1cc(O)c2c(c1)O[C@H](c1ccc(O)c(O)c1)[C@H](O)C2` [(−)-epicatechin], the “inhibition of Leukemia virus reverse transcriptase activity” value in assay [2] is reported as “inhibit”.
Regarding `Oc1cc(O)c2c(c1)O[C@@]1(c3ccc(O)c(O)c3)Oc3cc(O)c4c(c3[C@@H]2[C@H]1O)O[C@H](c1ccc(O)c(O)c1)[C@@H](O)C4` [A1 dimer, epicatechin-(4β→8; 2β→O→7)-catechin], in the assay with rabbit aortic rings (FIGS. 1A-1C, 10^-9 to 10^-4 M cumulative), the “relaxation in pre-contracted aortic rings, dose dependence” value is recorded as “dose-dependent relaxation”. Besides, in the assay on rabbit aortic rings (concentration 10^−4M, +/−SE), the “vasorelaxation, percent relaxation of NE constricted rings” value is on record as 93.20+/−3.46%. Besides, the “relaxant potency compared with positive control acetylcholine” value in the assay with rabbit aortic rings (significant at p=0.005 for A1 dimer) is “more potent relaxants that the positive control”. In addition, the “leukocyte activation (CD11b)” value in assay [4] is given as “did not inhibit”. The collagen-induced platelet aggregation entry in the assay on platelets in whole blood is “inhibited”. In addition, in the assay with platelets in whole blood (FIG. 3, 4 min), the collagen induced aggregation entry is “inhibited”.
